MIC data for four molecules are collected here from ChEMBL document CHEMBL3822420, “New peptide deformylase inhibitors design, synthesis and pharmacokinetic assessment” (Bioorg Med Chem Lett, 2016).

≈ marks a conversion by molar mass, not a printed value.

Holding throughout (type): functional
Assay [1] relates to Staphylococcus epidermidis. Nature of the assay: Antibacterial activity against methicillin-sensitive Staphylococcus epidermidis 14-2.
Assay [2] relates to Staphylococcus aureus. The assay can be described thus: Antibacterial activity against methicillin-resistant Staphylococcus aureus 14-5.
Assay [3] deals with Enterococcus faecalis. Nature of the assay: Antibacterial activity against Enterococcus faecalis 14-5.
For assay [4], the system named is Staphylococcus epidermidis. The assay can be described thus: Antibacterial activity against methicillin-sensitive Staphylococcus epidermidis 14-1.
The test system of assay [5] is Staphylococcus aureus. The assay can be described thus: Antibacterial activity against methicillin-resistant Staphylococcus aureus 14-4.
Assay [6] concerns Staphylococcus aureus. The assay can be described thus: Antibacterial activity against methicillin-resistant Staphylococcus aureus 14-1.
Assay [7] concerns Enterococcus faecalis. The assay can be described thus: Antibacterial activity against Enterococcus faecalis 14-2.
For assay [8], the system named is Staphylococcus epidermidis. Nature of the assay: Antibacterial activity against methicillin-resistant Staphylococcus epidermidis 14-1.
The test system of assay [9] is Escherichia coli. Nature of the assay: Antibacterial activity against Escherichia coli 14-1 expressing extended-spectrum beta-lactamase.
For assay [10], the system named is Enterococcus faecalis. Nature of the assay: Antibacterial activity against Enterococcus faecalis 14-3.
Assay [11] has as its system Staphylococcus aureus. The assay can be described thus: Antibacterial activity against methicillin-sensitive Staphylococcus aureus 14-2.
Assay [12] deals with Staphylococcus aureus. Nature of the assay: Antibacterial activity against methicillin-sensitive Staphylococcus aureus 14-3.
In assay [13] the test system is Escherichia coli. The assay can be described thus: Antibacterial activity against Escherichia coli 14-1.
In assay [14] the test system is Enterococcus faecalis. Nature of the assay: Antibacterial activity against Enterococcus faecalis 14-1.
Assay [15] has as its system Staphylococcus aureus. Nature of the assay: Antibacterial activity against methicillin-sensitive Staphylococcus aureus 14-4.
Assay [16] concerns Staphylococcus epidermidis. The assay can be described thus: Antibacterial activity against methicillin-resistant Staphylococcus epidermidis 14-4.
Assay [17] has as its system Staphylococcus epidermidis. The assay can be described thus: Antibacterial activity against methicillin-sensitive Staphylococcus epidermidis 14-3.
The subject of assay [18] is Escherichia coli. The assay can be described thus: Antibacterial activity against Escherichia coli 14-2 expressing extended-spectrum beta-lactamase.
Assay [19] deals with Staphylococcus aureus. Nature of the assay: Antibacterial activity against methicillin-resistant Staphylococcus aureus 14-2.
Assay [20] has as its system Escherichia coli. Nature of the assay: Antibacterial activity against Escherichia coli 14-2.
The subject of assay [21] is Staphylococcus epidermidis. The assay can be described thus: Antibacterial activity against methicillin-resistant Staphylococcus epidermidis 14-2.
Assay [22] concerns Staphylococcus aureus. Nature of the assay: Antibacterial activity against methicillin-sensitive Staphylococcus aureus 14-1.
The test system of assay [23] is Staphylococcus epidermidis. The assay can be described thus: Antibacterial activity against methicillin-resistant Staphylococcus epidermidis 14-3.

Take `CO/N=C(\C(=O)N[C@@H]1C(=O)N2C(C(=O)[O-])=CCS[C@H]12)c1csc(N)n1.[Na+]` [CEFTIZOXIME SODIUM]: the MIC is 64 µg/mL in assay [1]; 64 µg/mL in assay [2]; over 128 µg/mL in [3]; 32 µg/mL in [4]; 128 µg/mL in assay [5]; 128 µg/mL in assay [6]. The MIC was over 128 µg/mL in [7]; 128 µg/mL in assay [8]; 1 µg/mL in assay [9]; over 128 µg/mL in assay [10]; 4 µg/mL in assay [11]; 4 µg/mL in [12]. For the same molecule, the MIC is 4 µg/mL in assay [13]; over 128 µg/mL in assay [14]; 2 µg/mL in [15]; 32 µg/mL in [16]; over 128 µg/mL in assay [17]; 32 µg/mL in assay [18]. For the same molecule, the MIC in [19] is 64 µg/mL; in assay [20], 4 µg/mL; in assay [21], 128 µg/mL; in assay [22], 4 µg/mL.

On to `CCCC[C@H](CN(O)C=O)C(=O)N1CC2(CC2)C[C@H]1C(=O)Nc1ncccc1F`, for which the MIC came out at 0.25 µg/mL (≈ 0.615 µM) in assay [1]; 0.25 µg/mL (≈ 0.615 µM) in assay [2]; 0.125 µg/mL (≈ 0.308 µM) in [23]; 2 µg/mL (≈ 4.92 µM) in assay [3]; 0.125 µg/mL (≈ 0.308 µM) in assay [4]; 0.5 µg/mL (≈ 1.23 µM) in assay [5]. Also, the MIC came to 0.5 µg/mL (≈ 1.23 µM) in assay [6]; 2 µg/mL (≈ 4.92 µM) in assay [7]; 0.25 µg/mL (≈ 0.615 µM) in [8]; 2 µg/mL (≈ 4.92 µM) in [9]; 2 µg/mL (≈ 4.92 µM) in assay [10]; 0.5 µg/mL (≈ 1.23 µM) in [11]. Also, the MIC is 0.5 µg/mL (≈ 1.23 µM) in assay [12]; over 64 µg/mL in assay [13]; 2 µg/mL (≈ 4.92 µM) in [14]; 0.5 µg/mL (≈ 1.23 µM) in assay [15]; 0.5 µg/mL (≈ 1.23 µM) in assay [16]; 0.25 µg/mL (≈ 0.615 µM) in [17]. Besides, the MIC in assay [18] is 64 µg/mL (≈ 157 µM); in assay [19], 0.5 µg/mL (≈ 1.23 µM); in [20], 64 µg/mL (≈ 157 µM); in [21] it was 0.25 µg/mL (≈ 0.615 µM); in assay [22] it was 0.5 µg/mL (≈ 1.23 µM).

`CCCC[C@H](CN(O)C=O)C(=O)N1CC2(CC2)C[C@H]1c1nnc2ccccn12`: the MIC in assay [1] is 0.5 µg/mL (≈ 1.3 µM); in assay [2] it was 1 µg/mL (≈ 2.59 µM); in [23], 0.25 µg/mL (≈ 0.649 µM); in [3], 8 µg/mL (≈ 20.8 µM); in assay [4], 0.25 µg/mL (≈ 0.649 µM); in [5] it was 1 µg/mL (≈ 2.59 µM). Also, the MIC in assay [6] is 1 µg/mL (≈ 2.59 µM); in assay [7], 8 µg/mL (≈ 20.8 µM); in assay [8], 0.5 µg/mL (≈ 1.3 µM); in [9] it was 2 µg/mL (≈ 5.19 µM); in assay [10] it was 8 µg/mL (≈ 20.8 µM); in [11], 1 µg/mL (≈ 2.59 µM). Besides, the MIC in [12] turned out to be 1 µg/mL (≈ 2.59 µM); in [13] it was 128 µg/mL (≈ 332 µM); in assay [14], 4 µg/mL (≈ 10.4 µM); in [15] it was 1 µg/mL (≈ 2.59 µM); in assay [16], 1 µg/mL (≈ 2.59 µM); in assay [17], 0.5 µg/mL (≈ 1.3 µM). Also, the MIC was found to be 128 µg/mL (≈ 332 µM) in assay [18]; 1 µg/mL (≈ 2.59 µM) in assay [19]; 128 µg/mL (≈ 332 µM) in [20]; 0.5 µg/mL (≈ 1.3 µM) in assay [21]; 1 µg/mL (≈ 2.59 µM) in [22].

On to `CCCC[C@H](CN(O)C=O)C(=O)N1CCC[C@H]1C(=O)Nc1ccc(F)c[n+]1[O-]`, for which the MIC in assay [1] was 0.5 µg/mL (≈ 1.26 µM); in [2], 0.5 µg/mL (≈ 1.26 µM); in [23], 0.06 µg/mL (≈ 0.151 µM); in assay [3], 128 µg/mL (≈ 323 µM); in assay [4], 0.06 µg/mL (≈ 0.151 µM); in assay [5], 1 µg/mL (≈ 2.52 µM). For the same molecule, the MIC in assay [6] was found to be 1 µg/mL (≈ 2.52 µM); in [7], 2 µg/mL (≈ 5.05 µM); in assay [8], 0.125 µg/mL (≈ 0.315 µM); in [9], 1 µg/mL (≈ 2.52 µM); in assay [10], 2 µg/mL (≈ 5.05 µM); in [11] it was 0.5 µg/mL (≈ 1.26 µM). The MIC stood at 0.5 µg/mL (≈ 1.26 µM) in [12]; 64 µg/mL (≈ 161 µM) in assay [13]; 2 µg/mL (≈ 5.05 µM) in assay [14]; 0.5 µg/mL (≈ 1.26 µM) in assay [15]; 0.125 µg/mL (≈ 0.315 µM) in assay [16]; 0.06 µg/mL (≈ 0.151 µM) in assay [17]. The MIC came out at 64 µg/mL (≈ 161 µM) in assay [18]; 1 µg/mL (≈ 2.52 µM) in [19]; 64 µg/mL (≈ 161 µM) in assay [20]; 0.125 µg/mL (≈ 0.315 µM) in assay [21]; 0.5 µg/mL (≈ 1.26 µM) in assay [22].

Broadly, the MIC is the lowest concentration found to suppress growth. Low values mean a more susceptible organism, high ones a less susceptible organism.
